# Reference: PubChem BioAssay AID1963827 (Molecular Pharmacology Branch, DTP, NCI, 2024)
# pIC50: −log10 of the molar value.
# Test system: 994946-033-R-J1-PDC complex spheroid viability
# Assay: Anticancer human tumor 994946-033-R-J1-PDC patient-derived melanoma cell line growth inhibition [POLQ]
# Conditions: for pIC50: curve of first compound; for viability, T/C: stronger effect = lower value
# Summary of the method: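 Patient-derived tumour cells were co-cultured with HUVEC and mesenchymal stem cells as multicellular spheroids at 37 °C. They were treated with POLQ inhibitors (novobiocin, ART-558, RP6685) alone or combined with other agents. Top concentrations were at or near clinical Cmax (otherwise 10 microM; SN-38 at 1 microM), decreasing in half-log steps.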
# [1] = second compound 0.0316 µM, first compound 0.0316 µM
# [2] = second compound 0.0316 µM, first compound 0.1 µM
# [3] = second compound 0.0316 µM, first compound 0.316 µM
# [4] = second compound 0.0316 µM, first compound 1 µM
# [5] = second compound 0.0316 µM, first compound 3.16 µM
# [6] = second compound 0.0316 µM, first compound 10 µM
# [7] = second compound 0.1 µM, first compound 0.0316 µM
# [8] = second compound 0.1 µM, first compound 0.1 µM
# [9] = second compound 0.1 µM, first compound 0.316 µM
# [10] = second compound 0.1 µM, first compound 1 µM
# [11] = second compound 0.1 µM, first compound 3.16 µM
# [12] = second compound 0.1 µM, first compound 10 µM
# [13] = second compound 0.316 µM, first compound 0.0316 µM
# [14] = second compound 0.316 µM, first compound 0.1 µM
# [15] = second compound 0.316 µM, first compound 0.316 µM
# [16] = second compound 0.316 µM, first compound 1 µM
# [17] = second compound 0.316 µM, first compound 3.16 µM
# [18] = second compound 0.316 µM, first compound 10 µM
# [19] = second compound 1 µM, first compound 0.0316 µM
# [20] = second compound 1 µM, first compound 0.1 µM
# [21] = second compound 1 µM, first compound 0.316 µM
# [22] = second compound 1 µM, first compound 1 µM
# [23] = second compound 1 µM, first compound 3.16 µM
# [24] = second compound 1 µM, first compound 10 µM
# [25] = second compound 3.16 µM, first compound 0.0316 µM
# [26] = second compound 3.16 µM, first compound 0.1 µM
# [27] = second compound 3.16 µM, first compound 0.316 µM
# [28] = second compound 3.16 µM, first compound 1 µM
# [29] = second compound 3.16 µM, first compound 3.16 µM
# [30] = second compound 3.16 µM, first compound 10 µM
# [31] = second compound 10 µM, first compound 0.0316 µM
# [32] = second compound 10 µM, first compound 0.1 µM
# [33] = second compound 10 µM, first compound 0.316 µM
# [34] = second compound 10 µM, first compound 1 µM
# [35] = second compound 10 µM, first compound 3.16 µM
# [36] = second compound 10 µM, first compound 10 µM
# 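Further: spheroids exposed to drugs for 7 days.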
# 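Wherever viability, T/C is given: 100% = DMSO vehicle treated spheroids.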
structure (smiles),measurement,setting,value
COc1cc2cc(C(=O)CCC(=O)O)sc2cc1OC + COC1C(OC(N)=O)C(O)C(Oc2ccc3c(O)c(NC(=O)c4ccc(O)c(CC=C(C)C)c4)c(=O)oc3c2C)OC1(C)C,pIC50,second compound 0.0316 µM,< 5.00
same,pIC50,second compound 0.1 µM,< 5.00
same,pIC50,second compound 0.316 µM,< 5.00
same,pIC50,second compound 1 µM,< 5.00
same,pIC50,second compound 3.16 µM,< 5.00
same,pIC50,second compound 10 µM,< 5.00
same,"viability, T/C",[1],91.3%
same,"viability, T/C",[2],83%
same,"viability, T/C",[3],98.6%
same,"viability, T/C",[4],118%
same,"viability, T/C",[5],98.8%
same,"viability, T/C",[6],96.8%
same,"viability, T/C",[7],89.9%
same,"viability, T/C",[8],101%
same,"viability, T/C",[9],109%
same,"viability, T/C",[10],116%
same,"viability, T/C",[11],86.8%
same,"viability, T/C",[12],77.5%
same,"viability, T/C",[13],93.5%
same,"viability, T/C",[14],102%
same,"viability, T/C",[15],84.5%
same,"viability, T/C",[16],82.4%
same,"viability, T/C",[17],105%
same,"viability, T/C",[18],86.4%
same,"viability, T/C",[19],93.4%
same,"viability, T/C",[20],90.8%
same,"viability, T/C",[21],94.1%
same,"viability, T/C",[22],76.9%
same,"viability, T/C",[23],83.3%
same,"viability, T/C",[24],100%
same,"viability, T/C",[25],101%
same,"viability, T/C",[26],75.9%
same,"viability, T/C",[27],106%
same,"viability, T/C",[28],82.4%
same,"viability, T/C",[29],87.5%
same,"viability, T/C",[30],78.6%
same,"viability, T/C",[31],90.8%
same,"viability, T/C",[32],109%
same,"viability, T/C",[33],83.7%
same,"viability, T/C",[34],71.4%
same,"viability, T/C",[35],105%
same,"viability, T/C",[36],80.6%
CC1COCCN1c1cc(C2(O)CC3CCC(C2)O3)c2cnn(-c3ccn[nH]3)c2n1 (stereo unspecified) + COC1C(OC(N)=O)C(O)C(Oc2ccc3c(O)c(NC(=O)c4ccc(O)c(CC=C(C)C)c4)c(=O)oc3c2C)OC1(C)C,pIC50,second compound 0.0316 µM,7.44
same,pIC50,second compound 0.1 µM,7.30
same,pIC50,second compound 0.316 µM,7.47
same,pIC50,second compound 1 µM,7.17
same,pIC50,second compound 3.16 µM,> 7.50
same,pIC50,second compound 10 µM,7.35
same,"viability, T/C",[1],52.4%
same,"viability, T/C",[2],39.7%
same,"viability, T/C",[3],17.2%
same,"viability, T/C",[4],25.7%
same,"viability, T/C",[5],12.7%
same,"viability, T/C",[6],6.6%
same,"viability, T/C",[7],61.9%
same,"viability, T/C",[8],32.1%
same,"viability, T/C",[9],19.1%
same,"viability, T/C",[10],17.5%
same,"viability, T/C",[11],11.9%
same,"viability, T/C",[12],6.15%
same,"viability, T/C",[13],52.1%
same,"viability, T/C",[14],29.5%
same,"viability, T/C",[15],19.2%
same,"viability, T/C",[16],16.5%
same,"viability, T/C",[17],14.3%
same,"viability, T/C",[18],6.89%
same,"viability, T/C",[19],79.2%
same,"viability, T/C",[20],30.6%
same,"viability, T/C",[21],25.5%
same,"viability, T/C",[22],20.1%
same,"viability, T/C",[23],14.2%
same,"viability, T/C",[24],5.41%
same,"viability, T/C",[25],46.6%
same,"viability, T/C",[26],25.5%
same,"viability, T/C",[27],23.7%
same,"viability, T/C",[28],18.9%
same,"viability, T/C",[29],8.1%
same,"viability, T/C",[30],4.51%
same,"viability, T/C",[31],56.8%
same,"viability, T/C",[32],35.9%
same,"viability, T/C",[33],27.6%
same,"viability, T/C",[34],22.5%
same,"viability, T/C",[35],15.3%
same,"viability, T/C",[36],5.9%
CCCS(=O)(=O)Nc1ccc(F)c(C(=O)c2c[nH]c3ncc(-c4ccc(Cl)cc4)cc23)c1F + Nc1ccc(C#CCN(C(=O)Cc2ncc(C(F)(F)F)cc2C(F)(F)F)c2ccc(F)cc2)nn1,pIC50,second compound 0.0316 µM,5.16
same,pIC50,second compound 0.1 µM,5.16
same,pIC50,second compound 0.316 µM,5.17
same,pIC50,second compound 1 µM,5.13
same,pIC50,second compound 3.16 µM,5.14
same,pIC50,second compound 10 µM,5.20
same,"viability, T/C",[1],64.2%
same,"viability, T/C",[2],88%
same,"viability, T/C",[3],102%
same,"viability, T/C",[4],75.3%
same,"viability, T/C",[5],107%
same,"viability, T/C",[6],31.9%
same,"viability, T/C",[7],99.6%
same,"viability, T/C",[8],93%
same,"viability, T/C",[9],95.9%
same,"viability, T/C",[10],115%
same,"viability, T/C",[11],100%
same,"viability, T/C",[12],26.8%
same,"viability, T/C",[13],80.6%
same,"viability, T/C",[14],98.9%
same,"viability, T/C",[15],93.9%
same,"viability, T/C",[16],118%
same,"viability, T/C",[17],84.5%
same,"viability, T/C",[18],32.5%
same,"viability, T/C",[19],84.5%
same,"viability, T/C",[20],94.2%
same,"viability, T/C",[21],114%
same,"viability, T/C",[22],124%
same,"viability, T/C",[23],108%
same,"viability, T/C",[24],31.3%
same,"viability, T/C",[25],95.5%
same,"viability, T/C",[26],134%
same,"viability, T/C",[27],99.2%
same,"viability, T/C",[28],127%
same,"viability, T/C",[29],90.9%
same,"viability, T/C",[30],34.6%
same,"viability, T/C",[31],114%
same,"viability, T/C",[32],85%
same,"viability, T/C",[33],85.9%
same,"viability, T/C",[34],96.2%
same,"viability, T/C",[35],95.6%
same,"viability, T/C",[36],19.6%
